The subject of one data set is erythrocyte. Format: cell-based. Here is the method:
The hemolytic activity of each peptide was measured in the way as will be described hereinafter.
Each peptide (ca. 1 mg) was dissolved in 20 (l of 100% acetic acid and diluted with phosphate buffer to reach a total amount of 5 ml. The resulting solution was measured for its absorbency (280 nm) to determine its concentration. The solution was then used for experiments in situ by dilution with phosphate buffer.
A blood sample (ca. 3 ml) was centrifuged at 2,000 rpm at 4° C. for 10 minutes and the supernatant was removed to form an erythrocyte sample. To the erythrocyte sample was added 1 ml of phosphate buffer, and the resulting solution was stirred well, followed by centrifugation in the manner as described above. These procedures were repeated three times to obtain the erythrocyte alone. Moreover, 1 ml of phosphate buffer was added to the resulting erythrocyte, and the resulting mixture was stirred well, followed by distributing it by 60 μl to microtubes and centrifuging to remove the supernatant therefrom. The resulting erythrocyte was in turn used for further experiments.
The peptide and a protein solution were then added by 1 ml to the erythrocyte sample, and the resulting solution was stirred well, followed by allowing it to stand at 25° C. for 60 minutes. Thereafter, the tubes were centrifuged to collect the supernatant only (100 μl) which was in turn measured at an absorbency of 542 nm. The supernatant was then returned to each tube and a drop of surfactant Triton® X was added to each tube, followed by stirring it well and measuring for its absorbency at 542 nm.

For data set [1] the following is noted: Wilhelmy tensiometer; Japanese Patent Publication No. 2004-305006 A1; cited from earlier work.

Square brackets hold non-standard residues; d marks the D form. Peptide text beside a SMILES is read from it.

Consider `CC(C)C[C@H](NC(=O)[C@H](CC(C)C)NC(=O)[C@H](CC(C)C)NC(=O)[C@H](CCCCN)NC(=O)[C@@H](CC(C)C)NC(=O)[C@H](CC(C)C)NC(=O)[C@H](CCCCN)NC(=O)[C@H](CC(C)C)NC(=O)[C@H](Cc1c[nH]c2ccccc12)NC(=O)[C@H](CC(C)C)NC(=O)[C@@H](CCCCN)NC(=O)[C@@H](CC(C)C)NC(=O)[C@H](CC(C)C)NC(=O)[C@H](CC(C)C)NC(=O)[C@H](CCCCN)NC(=O)[C@H](CC(C)C)NC(=O)[C@H](CC(C)C)NC(=O)[C@@H](N)CCCCN)C(=O)O` [Hel 13-5D3, NH2-Lys Leu Leu Lys Leu Leu D-Leu D-Lys Leu Trp Leu Lys D-Leu Leu Lys Leu Leu Leu-COOH] (H-KLLKLL[dL][dK]LWLKL[dL]KLLL-OH), for which the “hemolytic activity of the peptide itself compared to peptide Hel 13-5” value in the data set with erythrocyte was “lower by several times”.

“H-KLLKLLLKLWLKLLKLLL-OH [Hel 13-5, NH2-Lys Leu Leu Lys Leu Leu Leu Lys Leu Trp Leu Lys Leu Leu Lys Leu Leu Leu-COOH]”: in the data set on erythrocyte, the “hemolytic activity (in words)” value is given as “strong hemolytic activity” and the hemolytic property result was “does not demonstrate a hemolytic property”. Moreover, the “surface tension-surface area curve (hysteresis curve) compared with Surfacten” value in data set [1] is recorded as “equal curve to that of Surfacten®”.

Values taken from US20110195892A1, “Artifical Pulmonary Surfactant Compositions” (priority 2005, published 2011).
